Read-outs that look alike come from different tables or passages of the source. Values belong to the compound of their own block, whether it stands above or below them.
What was measured:
[1] = test system: human platelets; assay: Platelet activation markers (PAC-1, CD62P, CD63 binding) by flow cytometry; format: cell-based; settings: for platelet activation markers PAC-1, CD62P, CD63 (in words): washed human platelets, 10 μM, 1 h treatment, flow cytometry (Fig. 5B)
Description: Fig. 5 (A) Functionalised, stapled Bim BH3 peptides induce PS exposure in platelets. […] (B) Stapled Bim BH3 peptides, but not ABT737 nor 21, induce platelet activation. Platelet activation markers (% positive platelets) were investigated following 1 h of peptide treatment. [drawing 10] PAC-1, [drawing 11] CD62P and [drawing 12] CD63 binding. Statistical significance compared to 20: ****P < 0.0001, ***P between 0.0001 and 0.0005, **P between 0.0010 and 0.0050 ns = non-significant.
(§1) Ethical approval for this study was obtained from the Faculty Research Ethics Committee at Anglia Ruskin University, Cambridge, UK.
(§2) 1.1 Preparation of washed platelet suspension
Blood was collected into 11 mM sodium citrate and washed platelets were prepared as follows: Platelet-rich plasma (PRP) was obtained by centrifugation (240 g, 15 min). Prostaglandin E1 (PGE1, 2 µM) was added to prevent premature platelet activation, and the plasma was centrifuged at 640 g for 15 min. Platelets were suspended in calcium free Tyrode‘s buffer (CFT buffer, containing: 140 mM NaCl, 5 mM KCl, 10 mM N-2-hydroxyethylpiperazine-N‘-2-ethanesulfonic acid (HEPES), 5 mM Glucose, 0.42 mM NaH2PO4, 12 mM NaHCO3, titrated to pH 7.4 with NaOH) to a final concentration of 2x108 platelet/mL and rested at 37 °C for 1 h prior to experimentation.
Treated washed platelet suspensions (1x10^7/mL) were analysed by flow cytometry using a C6 Accuri Flow Cytometer (Beckton Dickinson, UK), in the presence or absence of Annexin-V-PE (BD Biosciences, UK), anti-PAC-1 (BD Biosciences), anti-CD62 (BD Pharmingen, UK), or anti-CD-63P (BD Pharmingen).
Peptides were used to a final concentration of 10 µM (1 mM DMSO stock solutions). At least 10,000 events were acquired per experiment. The entire platelet population was primarily gated by FSC. […]
(§3) The washed platelet suspension was rested at 37 °C for 1 h before commencing the experiment. […] For real time measurments, the peptides were added to the 250 μL of washed platelet suspension after events were recorded for 1 minute and monitored for a further 4 min. […]
The suspensions were analysed by […]

[2] = test system: human platelets; assay: Confocal microscopy of platelets incubated with fluorescently labelled peptides; format: cell-based; settings: live washed platelets, 10 µM FITC-labelled peptide, 15 minutes incubation, confocal imaging (Fig. SI_5)
Description: (§4) Fig. 3 A functionalised staple is required to induce peptide uptake into platelets. (A) Platelets were incubated with TAMRA labelled model peptides (10 μM final concentration) for 1 h (white), 2 h (grey) and 3 h incubation (black) and the percentage positive for TAMRA fluorescence was quantified using flow cytometry. (B) Peptides showing high uptake within the first hour were analysed during first 5 min following treatment. Changes in platelet-associated fluorescence were recorded in real time using flow cytometry. Unlabelled platelets were recorded for 30 s prior to addition of the given peptide. (C) Platelets were incubated with 10 μM of TAMRA-model peptides for 1 h prior to imaging by confocal microscopy. ^‡ […]
Peptide uptake experiments of the most permeable model peptides 5, 13–16 were repeated in the presence of platelet-rich plasma (PRP) to ensure realistic conditions (ESI, Fig. SI_2a ^†).
Figure SI_3. […]
Peptides were used to a final concentration of 10 µM. […] Images of TAMRA-labelled model peptide stained platelets were acquired after 1 h incubation1 using with excitation at 565 nm and emission was detected with a 560 -615 nm BP filter. […]
were acquired after 15 minutes incubation1 using excitation at 488 nm and emission was detected with […]

[3] = biological target: T1, Bcl-xL (Homo sapiens, UniProt Q07817); assay: Surface plasmon resonance (SPR) direct binding to Bcl-xL; settings: 25 °C
T1 construct: made in house; host or cells: Escherichia coli BL21 Gold DE3
Description: 1.9 Surface Plasmon Resonance (SPR)
The present method utilizes a Surface plasmon resonance (SPR)-based biosensor (BiacoreTM, GE Healthcare,
Uppsala, Sweden) to characterize Bcl-xL peptide interaction partners.
The SPR assay is configured to examine direct binding of peptide s to Bcl-xL derivatized sensor surfaces and
generate relative affinity values (KDapp) to provide relative ranking data for the series of peptides under
BiacoreTM T200 (GE Healthcare, Uppsala, Sweden) was used to conduct all experiments reported herein. Sensor
surface preparation and all interaction analyses experiments were performed at 25 °C utilizing a data collection
rate of 10 Hz. Reagents were purchased from GE Healthcare. Running buffer containing 10 mM Hepes, pH 7.4,
150 mM sodium chloride, 1 mM dithiothreitol, 1% DMSO and 0.05% polysorbate 20 were utilized throughout
surface preparation and all interaction analysis experiments.
Histidine tagged Bcl-xL protein was diluted to 5 μg/mL and captured onto Sensor chip NTA via the following
sequence of injections to achieve a target Bcl-xL surface density of 700 R.U. (response units). The carboxymethyl
dextran surface of Sensor chip NTA was activated by injection of an aqueous solution containing 50 mM N-hydroxy
succinimide (NHS) and 200 mM N-ethyl-N’-(dimethylaminopropyl) carbodiimide (EDC). 500 μM nickel sulfate (NiSO4)
was subsequently injected for one minute and utilized to capture Bcl-xL from a 5 μg/mL solution injected for one
minute. A further one-minute injection of 1M ethanolamine, pH 8.5 was performed to deactivate any unreacted
carboxymethylesters.3 The flow-rate for all injections during surface derivatization was 10 µl/min.

[4] = test system: human platelets; assay: Peptide uptake in washed platelet suspension by flow cytometry; format: cell-based; settings: for positive platelets (TAMRA fluorescence), peptide uptake: TAMRA-labelled model peptide 10 μM (1 mM DMSO stock), 37 °C in the dark, 3 h incubation, flow cytometry, mean ± SEM, at least three donors
Description: Washed platelet suspensions were incubated with peptides for varying periods of time and cellular uptake was quantified using flow cytometry. […] Only 34.9 ± 7.8% of platelets were fluorescent following 8 (poly-lysine) treatments after 3 hours. Changes in fluorescence were not observed with other peptides (Fig. 3A).
as §4
In order to explore the rate of peptide uptake, changes in platelet fluorescence were monitored during the first 5 minutes (Fig. 3B) and after 15, 30, 45 and 60 minutes following treatment with peptides (Fig. SI_1, ESI ^†). More than 50% of platelets became fluorescent during the first 15 minutes of incubation with peptides 13–16, with a further increase after the first 45 minutes. Some 40–50% of platelets were fluorescent after 15 minutes following treatment with peptides 2, 5 or 8. No further increase was observed thereafter (Fig. SI_1, ESI ^†).
as §1, §2
Blood was collected into 11 mM sodium citrate and washed platelets were prepared as follows: Platelet-rich plasma (PRP) was obtained by centrifugation (240 g, 15 min). Prostaglandin E1 (PGE1, 2 µM) was added to prevent premature platelet activation, and the plasma was centrifuged at 640 g for 15 min. […]
Treated washed platelet suspensions (1x10^7/mL) were analysed by flow cytometry using a C6 Accuri Flow Cytometer (Beckton Dickinson, UK), in the presence or absence of Annexin-V-PE (BD Biosciences, UK), anti-PAC-1 (BD Biosciences), anti-CD62 (BD Pharmingen, UK), or anti-CD-63P (BD Pharmingen). […]
as §3

[5] = test system: human platelets; assay: PS exposure (annexin-V binding) by flow cytometry; format: cell-based; settings: washed human platelets, 10 μM, 37 °C, time course up to 3 h, flow cytometry (Fig. 5A)
Description: Platelet activation markers (% positive platelets) were investigated following 1 h of peptide treatment. […] CD63 binding.
Human blood was collected from healthy volunteers, who had not taken medication for two weeks,
following informed consent in accordance with the Declaration of Helsinki. Blood was collected into 11 mM sodium citrate and washed platelets were prepared as follows: Platelet-rich plasma (PRP) was obtained by centrifugation (240 g, 15 min). Prostaglandin E1 (PGE1, 2 µM) was added to prevent premature platelet activation, and the plasma was centrifuged at 640 g for 15 min. […]
PS exposure was assessed after incubation of 50 µL of washed platelet suspensions at 37 °C in 445 µL of […]
under the protection from direct light and analysed by flow cytometry.
Platelet activation markers (PAC -1, CD62P and CD63 binding) were assessed after incubation of 3 µL of […]
antibody and the peptide (1.1 μL of 1 mM stock solution in DMSO) . The suspensions were analysed by […]

[6] = SPR Biacore T200, His-tagged Bcl-xL on Sensor chip NTA, 7-point 2-fold dilution 33.3 nM to 1.03 nM, steady state fit, Table S1, read-out: Rel. Kdapp
[7] = washed human platelet suspension

T1 sequence (Q07817 whole entry): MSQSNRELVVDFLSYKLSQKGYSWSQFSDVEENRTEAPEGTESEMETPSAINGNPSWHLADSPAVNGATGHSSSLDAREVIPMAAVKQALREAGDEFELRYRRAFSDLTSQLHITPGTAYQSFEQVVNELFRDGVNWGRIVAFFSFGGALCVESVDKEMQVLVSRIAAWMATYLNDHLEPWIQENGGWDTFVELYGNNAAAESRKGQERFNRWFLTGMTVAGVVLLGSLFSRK

Structure (SMILES): CN(C)CC[C@H](CSc1ccccc1)Nc1ccc(S(=O)(=O)NC(=O)c2ccc(N3CCN(Cc4ccccc4-c4ccc(Cl)cc4)CC3)cc2)cc1[N+](=O)[O-] [ABT737]
PAC1-positive platelets (integrin αIIbβ3 activation) ([1]; washed human platelets in CFT buffer pH 7.4, 10 μM, 37 °C, after 1 hour, flow cytometry, mean ± SEM): ineffective
platelet activation markers PAC-1, CD62P, CD63 (in words) [1]: no increase in any activation marker

localisation / platelet permeability of FITC-labelled Bim BH3 peptide [2]: able to enter the platelet cytosol
Kd [3, 6]: > 33 nM
Structure (SMILES): CC[C@H](C)[C@H](NC(C)=O)C(=O)N[C@@H](Cc1c[nH]c2ccccc12)C(=O)N[C@H](C(=O)N[C@@H](C)C(=O)N[C@@H](CCC(N)=O)C(=O)N[C@@H](CCC(=O)O)C(=O)N[C@@H](CC(C)C)C(=O)N[C@@H](CCCNC(=N)N)C(=O)N[C@@]1(C)CCCC=CCCC[C@@](C)(C(=O)N[C@@H](Cc2ccccc2)C(=O)N[C@@H](CC(N)=O)C(=O)N[C@@H](C)C(=O)N[C@@H](Cc2ccc(O)cc2)C(=O)N[C@@H](Cc2ccc(O)cc2)C(=O)N[C@@H](C)C(=O)N[C@@H](CCCNC(=N)N)C(=O)N[C@@H](CCCNC(=N)N)C(N)=O)NC(=O)[C@H](CC(=O)O)NC(=O)CNC(=O)[C@H]([C@@H](C)CC)NC1=O)[C@@H](C)CC [Bim SAHBa, reference compound]
relative KDapp ([3]; SPR, His-tagged Bcl-xL captured on Sensor chip NTA, steady state affinity, as quoted in main text): reduced binding affinity compared to the wild-type and peptide 19

positive platelets (TAMRA fluorescence), peptide uptake [4, 7]: 73.0 ± 13.3%
Structure (SMILES): CC(C)C[C@@H]1NC(=O)[C@H](CC(C)C)NC(=O)[C@H](CCCNC(=N)N)NC(=O)[C@H](Cc2c[nH]c3ccccc23)NC(=O)[C@H](CC(C)C)NC(=O)[C@H](CC(=O)O)NC(=O)[C@@H](NC(=O)[C@H](Cc2ccccc2)NC(=O)[C@@H](NC(=O)[C@H](CCC(=O)O)NC(=O)CCCCCNC(=O)c2ccc3c(c2)C(=O)OC32c3ccc(N(C)C)cc3Oc3cc(N(C)C)ccc32)[C@@H](C)O)CCCn2cc(nn2)-c2cc(C(=O)N[C@@H](CCCNC(=N)N)C(=O)N[C@@H](CCCNC(=N)N)C(N)=O)cc(c2)-c2cn(nn2)CCC[C@@H](C(=O)N[C@@H](CCC(=O)O)C(=O)N[C@@H](CC(N)=O)C(N)=O)NC1=O [compound 4]

positive platelets (TAMRA fluorescence), peptide uptake [4, 7]: 87.0 ± 7.3%
fluorescent platelets, peptide uptake ([4]; washed human platelet suspension, TAMRA-labelled model peptide 10 μM, 37 °C, first 15 minutes of incubation, flow cytometry (Fig. SI_1)): 40–50%
change in platelet-associated fluorescence in real time ([4]; washed human platelets, TAMRA-labelled peptide, continuous flow cytometry during first 5 minutes of treatment (Fig. 3B)): rapid increase in platelet fluorescence
Structure (SMILES): CC(C)C[C@@H]1NC(=O)[C@H](CC(C)C)NC(=O)[C@H](CCCNC(=N)N)NC(=O)[C@H](Cc2c[nH]c3ccccc23)NC(=O)[C@H](CC(C)C)NC(=O)[C@H](CC(=O)O)NC(=O)[C@@H](NC(=O)[C@H](Cc2ccccc2)NC(=O)[C@@H](NC(=O)[C@H](CCC(=O)O)NC(=O)CCCCCNC(=O)c2ccc3c(c2)C(=O)OC32c3ccc(N(C)C)cc3Oc3cc(N(C)C)ccc32)[C@@H](C)O)CCCn2cc(nn2)-c2cc(C(=O)N[C@@H](CCCNC(=N)N)C(=O)N[C@@H](CCCNC(=N)N)C(=O)N[C@@H](CCCNC(=N)N)C(N)=O)cc(c2)-c2cn(nn2)CCC[C@@H](C(=O)N[C@@H](CCC(=O)O)C(=O)N[C@@H](CC(N)=O)C(N)=O)NC1=O [compound 5]

Kd [3, 6]: 26.2 nM
Kd ([3]; SPR, His-tagged Bcl-xL captured on Sensor chip NTA, steady state affinity, as quoted in main text, read-out: relative KDapp): 26 nM
Structure (SMILES): CC[C@H](C)[C@H](NC(C)=O)C(=O)N[C@@H](Cc1c[nH]c2ccccc12)C(=O)N[C@H](C(=O)N[C@@H](C)C(=O)N[C@@H](CCC(N)=O)C(=O)N[C@@H](CCC(=O)O)C(=O)N[C@@H](CC(C)C)C(=O)N[C@@H](CCCNC(=N)N)C(=O)N[C@H]1CCCn2cc(nn2)-c2cc(C(=O)N[C@@H](CCCNC(=N)N)C(=O)N[C@@H](CCCNC(=N)N)C(=O)N[C@@H](CCCNC(=N)N)C(N)=O)cc(c2)-c2cn(nn2)CCC[C@@H](C(=O)N[C@@H](Cc2ccccc2)C(=O)N[C@@H](CC(N)=O)C(=O)N[C@@H](C)C(=O)N[C@@H](Cc2ccc(O)cc2)C(=O)N[C@@H](Cc2ccc(O)cc2)C(=O)N[C@@H](C)C(=O)N[C@@H](CCCNC(=N)N)C(=O)N[C@@H](CCCNC(=N)N)C(N)=O)NC(=O)[C@H](CC(=O)O)NC(=O)CNC(=O)[C@H]([C@@H](C)CC)NC1=O)[C@@H](C)CC [peptide 19]

Rel. Kdapp ([3]; SPR Biacore T200, His-tagged Bcl-xL on Sensor chip NTA, 7-point 2-fold dilution 33.3 nM to 1.03 nM, steady state fit, Table S1): No binding
Structure (SMILES): CC[C@H](C)[C@H](NC(C)=O)C(=O)N[C@@H](Cc1c[nH]c2ccccc12)C(=O)N[C@H](C(=O)N[C@@H](C)C(=O)N[C@@H](CCC(N)=O)C(=O)N[C@@H](CCC(=O)O)C(=O)N[C@@H](CC(C)C)C(=O)N[C@@H](CC(=O)O)C(=O)N[C@H]1CCCn2cc(nn2)-c2cc(C(=O)N[C@@H](CCCNC(=N)N)C(=O)N[C@@H](CCCNC(=N)N)C(=O)N[C@@H](CCCNC(=N)N)C(N)=O)cc(c2)-c2cn(nn2)CCC[C@@H](C(=O)N[C@@H](Cc2ccccc2)C(=O)N[C@@H](CC(N)=O)C(=O)N[C@@H](C)C(=O)N[C@@H](Cc2ccc(O)cc2)C(=O)N[C@@H](Cc2ccc(O)cc2)C(=O)N[C@@H](C)C(=O)N[C@@H](CCCNC(=N)N)C(=O)N[C@@H](CCCNC(=N)N)C(N)=O)NC(=O)[C@H](CC(=O)O)NC(=O)CNC(=O)[C@H]([C@@H](C)CC)NC1=O)[C@@H](C)CC [peptide 21]
PS exposure / annexin-V binding (in words) [5]: did not result in PS exposure
platelet activation markers PAC-1, CD62P, CD63 (in words) [1]: nonspecific activation was not observed
